Measured values reported in US7744927B2, “Methods of promoting hematopoietic and mesenchymal cell proliferation and differentiation” (University of Southern California, priority 1997, dated 2010).

Tests used:
[1] = tested on: rat peritoneal macrophages; experiment: Respiratory burst (hydrogen peroxide generation), rat peritoneal macrophages; assay type: cell-based; conditions: alone and in response to PMA 10 ng/ml; 4 hours exposure
Procedure: The respiratory burst of leukocytes (macrophages and polymorphonuclear neutrophils) is one component of the mediator system used to kill bacteria. As with phagocytosis, the level of this respiratory burst activity in resident macrophages is low. […] Studies were conducted to assess the effect of in vitro exposure of murine or rat peritoneal macrophages and human peripheral blood mononuclear cells (PBMC) to various concentrations of AII on the capacity to generate hydrogen peroxide via the respiratory burst system. For the human studies, five different donors were examined.
The murine or rat peritoneal cells were harvested by lavage with 5-15 ml of cold PBS with 0.5% bovine serum albumin. The human PBMC were harvested by venipuncture from normal human volunteers and isolated from peripheral blood by Ficoll Hypaque density centrifugation. After isolation, the cells were resuspended at 1×10^6 cells/ml and placed at 100 μl per well into 96 well plates. The cells were incubated with various concentrations of AII or AII analogues for 4 hours at 37° C. The cells were then preloaded with a fluorescent probe for hydrogen peroxide, 2,7 dichlorofluorescein acetate, which is nonfluorescent in the absence of hydrogen peroxide. […] One hour after stimulation the level of fluorescence produced was measured on a Cytofluor 2350 multiwell fluorometer.

[2] = tested on: Human PBMC; experiment: Proliferation of human PBMC, 3H-thymidine incorporation with or without pokeweed mitogen; assay type: cell-based; conditions: for Stimulation Index (SI): stimulated counts / counts without mitogen
Procedure: Upon stimulation of lymphocytes with mitogen or antigen, these cells undergo blastogenesis and proliferation. In the absence of such stimuli, proliferation is seldom observed. One method to measure cellular proliferation in a short term assay is via measurement of the amount of the nucleotide thymidine that is incorporated into newly synthesized DNA. The effect of AII on the proliferation of human PBMC in the presence and absence of pokeweed mitogen (“PWM”) was assessed.
Human PBMC were collected from normal volunteers and isolated via Ficoll Hypaque (Sigma Chemical, St. Louis) density centrifugation. After isolation of the buffy coat, the cells were washed 3× to remove the Ficoll Hypaque, counted in trypan blue (0.01%) and resuspended at a concentration of 1×10^6 cells/ml in RPMI 1640 containing 10% fetal calf serum and antibiotics. A 100 μl aliquot of cells was added to each well. Thereafter, various concentrations (0.1 to 1000 μg/ml final concentration) of AII in RPMI 1640 containing 10% FCS and antibiotics were added to various wells in triplicate. To the appropriate wells, PWM (20 μg/ml final concentration) was added. These plates were incubated at 37° C. in 5% CO2 for 48 hours. Subsequently, 0.5 μCi of ^3H-thymidine was added to each well, which were incubated at 37° C. for an additional 24 hours prior to harvest by a multiwell automated sample harvester (Skatron) onto glass fiber filters. These filters were dried, placed in scintillation fluid and the amount of thymidine incorporated was determined by beta counting.

[3] = tested on: wound tissue; conditions: application to wound tissue; cited from earlier work
[4] = tested on: rat MSC; experiment: Rat mesenchymal stem cell proliferation in bone marrow culture; assay type: cell-based, Sprague Dawley rats; conditions: 1 to 100 μg/ml, in presence of serum
Procedure: These studies were conducted to determine the effect that AII would have on the proliferation of MSC. Bone marrow cells were harvested from the femur and tibia of female Sprague Dawley rats by flushing the bones with Dulbecco's Minimal Essential Medium-High Glucose (“DMEM-HG”) with a syringe and an 18 gauge needle. These cells were cultured in 24 well plates at 5×10^3 cells/mm^2 in DMEM-HG containing selected lots of fetal calf serum (FCS) and antibiotics (complete medium) at 37° C. incubator containing 5% CO2 in air. Twenty-four hours after the initiation of the cultures the medium and nonadherent cells were aspirated and fresh medium was added. To each of these several wells, complete medium with (1 to 100 μg/ml) or without AII was added. The migration of cells from the clones and their proliferation was followed by microscopic examination. Every 4 days the old medium was removed and fresh medium was added to the cultures. These studies were conducted to determine the effect that inclusion of AII analogues and fragments in the cell culture of MSC would have on the proliferation of these cells. Bone marrow cells were harvested from the femur and tibia of female Sprague Dawley rats by flushing the bones with Dulbecco's Minimal Essential Medium-High Glucose (“DMEM-HG”) with a syringe and an 18 gauge needle. […]

[5] = tested on: AT2 receptor; conditions: cited from earlier work

Asp-Arg-Val-Tyr-Ile-His-Pro-Phe [AII, known pressor agent, commercially available]
ability to generate hydrogen peroxide (respiratory burst) [1]: increased the ability of leukocytes to generate hydrogen peroxide
Stimulation Index (SI) ([2]; AII Concentration 0.1, Experiment 1 (donor 1)): 3.54
Stimulation Index (SI) ([2]; AII Concentration 0.1, Experiment 2 (donor 2)): 38.13
cpm 3H-Thymidine Incorporated ([2]; AII Concentration 0.1, PWM, Experiment 1 (donor 1)): 1329.0 cpm
cpm 3H-Thymidine Incorporated ([2]; AII Concentration 0.1, PWM, Experiment 2 (donor 2)): 2135.0 cpm
Stimulation Index (SI) ([2]; AII Concentration 1, Experiment 1 (donor 1)): 5.88
Stimulation Index (SI) ([2]; AII Concentration 1, Experiment 2 (donor 2)): 62.42
cpm 3H-Thymidine Incorporated ([2]; AII Concentration 1, PWM, Experiment 1 (donor 1)): 1411.2 cpm
cpm 3H-Thymidine Incorporated ([2]; AII Concentration 1, PWM, Experiment 2 (donor 2)): 2996.0 cpm
Stimulation Index (SI) ([2]; AII Concentration 10, Experiment 1 (donor 1)): 5.34
Stimulation Index (SI) ([2]; AII Concentration 10, Experiment 2 (donor 2)): 75.88
cpm 3H-Thymidine Incorporated ([2]; AII Concentration 10, PWM, Experiment 1 (donor 1)): 1427.0 cpm
cpm 3H-Thymidine Incorporated ([2]; AII Concentration 10, PWM, Experiment 2 (donor 2)): 3946.0 cpm
Stimulation Index (SI) ([2]; AII Concentration 100, Experiment 1 (donor 1)): 11.41
Stimulation Index (SI) ([2]; AII Concentration 100, Experiment 2 (donor 2)): 69.39
cpm 3H-Thymidine Incorporated ([2]; AII Concentration 100, PWM, Experiment 1 (donor 1)): 1552.1 cpm
cpm 3H-Thymidine Incorporated ([2]; AII Concentration 100, PWM, Experiment 2 (donor 2)): 3747.0 cpm
Stimulation Index (SI) ([2]; AII Concentration 1000, Experiment 1 (donor 1)): 15.48
Stimulation Index (SI) ([2]; AII Concentration 1000, Experiment 2 (donor 2)): 89.63
cpm 3H-Thymidine Incorporated ([2]; AII Concentration 1000, PWM, Experiment 1 (donor 1)): 1551.5 cpm
cpm 3H-Thymidine Incorporated ([2]; AII Concentration 1000, PWM, Experiment 2 (donor 2)): 4302.0 cpm
thymidine incorporated in response to PWM ([2]; PWM 20 μg/ml, two donors): increase the amount of thymidine incorporated
thymidine incorporation ([2]; absence of mitogen): no increase in thymidine incorporation
rate of wound healing [3]: significantly increases the rate of wound healing
number of sites from which the MSC were migrating (CFU) [4]: significantly increased
size (number of cells) of the colonies formed [4]: significantly increased
affinity for AT2 than AT1 [5]: 100 times
